Columns and labels:
CD-1 mice = assay: Tear volume by phenol red thread tear test in normal CD-1 mice; assay type: in vivo, mouse; conditions: isorhamnetin 30 µM with CFTRinh-172 20 µM
Experimental: Tear volume was measured using phenol red threads (Zone-Quick, Oasis Medical, Glendora, CA, USA) by placing them in the lateral canthi of normal CD-1 or dry eye model-treated BL6 mice for 10 s using forceps. Tear volume was measured using a Vernier caliper as the length of thread wetting under a microscope. For normal CD-1 mice, serial measurements were done to evaluate compound pharmacodynamics compared to the vehicle after topical application of a single, 2.5-μL drop of compound formulations containing 20 μM forskolin, 30 μM isorhamnetin, or 20 μM CFTRinh-172 in PBS with 0.1% DMSO.

CFTR = target: T1, CFTR (Mus musculus, UniProt P26361); assay: Open-circuit ocular surface potential difference (PD) in CD-1 mice; assay type: in vivo; conditions: 20 μM CFTRinh-172
T1 construct: from tissue; host or cells: ocular surface of anesthetized CD-1 mice (in vivo)
T1 sequence (P26361 whole entry): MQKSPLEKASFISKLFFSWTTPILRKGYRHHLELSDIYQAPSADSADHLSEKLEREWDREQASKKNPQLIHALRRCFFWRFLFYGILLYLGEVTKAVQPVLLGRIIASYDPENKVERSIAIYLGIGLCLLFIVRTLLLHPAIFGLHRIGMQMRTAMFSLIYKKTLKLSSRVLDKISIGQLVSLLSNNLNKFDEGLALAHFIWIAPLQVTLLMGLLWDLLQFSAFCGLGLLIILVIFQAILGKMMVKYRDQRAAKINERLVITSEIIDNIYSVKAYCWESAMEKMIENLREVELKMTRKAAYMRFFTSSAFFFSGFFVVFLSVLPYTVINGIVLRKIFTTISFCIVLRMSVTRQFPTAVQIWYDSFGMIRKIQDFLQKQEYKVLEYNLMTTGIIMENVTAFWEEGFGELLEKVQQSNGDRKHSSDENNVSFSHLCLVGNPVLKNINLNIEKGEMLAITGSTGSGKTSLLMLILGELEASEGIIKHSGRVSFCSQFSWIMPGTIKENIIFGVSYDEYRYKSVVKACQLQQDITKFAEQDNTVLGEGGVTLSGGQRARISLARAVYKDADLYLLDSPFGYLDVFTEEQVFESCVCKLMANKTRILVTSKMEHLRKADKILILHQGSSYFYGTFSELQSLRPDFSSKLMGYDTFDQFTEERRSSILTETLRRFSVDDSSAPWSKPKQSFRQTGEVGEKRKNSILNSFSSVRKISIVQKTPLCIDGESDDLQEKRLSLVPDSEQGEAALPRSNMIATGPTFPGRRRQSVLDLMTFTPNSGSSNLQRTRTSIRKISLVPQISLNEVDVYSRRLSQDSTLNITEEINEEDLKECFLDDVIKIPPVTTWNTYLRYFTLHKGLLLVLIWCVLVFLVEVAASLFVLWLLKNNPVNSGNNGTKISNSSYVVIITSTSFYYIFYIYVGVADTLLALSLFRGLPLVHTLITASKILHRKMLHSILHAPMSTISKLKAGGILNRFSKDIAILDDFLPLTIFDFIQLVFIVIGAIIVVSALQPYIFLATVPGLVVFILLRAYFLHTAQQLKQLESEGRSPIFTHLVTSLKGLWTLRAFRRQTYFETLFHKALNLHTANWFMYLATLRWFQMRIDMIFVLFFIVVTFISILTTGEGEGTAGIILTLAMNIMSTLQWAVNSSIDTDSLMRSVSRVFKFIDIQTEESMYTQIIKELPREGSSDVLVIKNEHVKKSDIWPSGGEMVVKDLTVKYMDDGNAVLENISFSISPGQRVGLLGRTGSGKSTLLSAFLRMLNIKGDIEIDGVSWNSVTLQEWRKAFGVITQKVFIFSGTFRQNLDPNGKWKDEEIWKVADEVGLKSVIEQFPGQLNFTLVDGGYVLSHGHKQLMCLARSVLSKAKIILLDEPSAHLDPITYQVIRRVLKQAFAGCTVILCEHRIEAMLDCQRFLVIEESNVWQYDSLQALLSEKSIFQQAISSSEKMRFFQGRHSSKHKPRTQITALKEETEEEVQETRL

WT-CFTR = WT-CFTR (Homo sapiens, UniProt P13569); assay: Whole-cell patch clamp in CHO-K1 cells expressing WT-CFTR; assay type: cell-based; design: expressed in transfected cells; host or cells: CHO-K1; conditions: 10 μM CFTRinh-172
Chain of WT-CFTR (P13569 whole entry): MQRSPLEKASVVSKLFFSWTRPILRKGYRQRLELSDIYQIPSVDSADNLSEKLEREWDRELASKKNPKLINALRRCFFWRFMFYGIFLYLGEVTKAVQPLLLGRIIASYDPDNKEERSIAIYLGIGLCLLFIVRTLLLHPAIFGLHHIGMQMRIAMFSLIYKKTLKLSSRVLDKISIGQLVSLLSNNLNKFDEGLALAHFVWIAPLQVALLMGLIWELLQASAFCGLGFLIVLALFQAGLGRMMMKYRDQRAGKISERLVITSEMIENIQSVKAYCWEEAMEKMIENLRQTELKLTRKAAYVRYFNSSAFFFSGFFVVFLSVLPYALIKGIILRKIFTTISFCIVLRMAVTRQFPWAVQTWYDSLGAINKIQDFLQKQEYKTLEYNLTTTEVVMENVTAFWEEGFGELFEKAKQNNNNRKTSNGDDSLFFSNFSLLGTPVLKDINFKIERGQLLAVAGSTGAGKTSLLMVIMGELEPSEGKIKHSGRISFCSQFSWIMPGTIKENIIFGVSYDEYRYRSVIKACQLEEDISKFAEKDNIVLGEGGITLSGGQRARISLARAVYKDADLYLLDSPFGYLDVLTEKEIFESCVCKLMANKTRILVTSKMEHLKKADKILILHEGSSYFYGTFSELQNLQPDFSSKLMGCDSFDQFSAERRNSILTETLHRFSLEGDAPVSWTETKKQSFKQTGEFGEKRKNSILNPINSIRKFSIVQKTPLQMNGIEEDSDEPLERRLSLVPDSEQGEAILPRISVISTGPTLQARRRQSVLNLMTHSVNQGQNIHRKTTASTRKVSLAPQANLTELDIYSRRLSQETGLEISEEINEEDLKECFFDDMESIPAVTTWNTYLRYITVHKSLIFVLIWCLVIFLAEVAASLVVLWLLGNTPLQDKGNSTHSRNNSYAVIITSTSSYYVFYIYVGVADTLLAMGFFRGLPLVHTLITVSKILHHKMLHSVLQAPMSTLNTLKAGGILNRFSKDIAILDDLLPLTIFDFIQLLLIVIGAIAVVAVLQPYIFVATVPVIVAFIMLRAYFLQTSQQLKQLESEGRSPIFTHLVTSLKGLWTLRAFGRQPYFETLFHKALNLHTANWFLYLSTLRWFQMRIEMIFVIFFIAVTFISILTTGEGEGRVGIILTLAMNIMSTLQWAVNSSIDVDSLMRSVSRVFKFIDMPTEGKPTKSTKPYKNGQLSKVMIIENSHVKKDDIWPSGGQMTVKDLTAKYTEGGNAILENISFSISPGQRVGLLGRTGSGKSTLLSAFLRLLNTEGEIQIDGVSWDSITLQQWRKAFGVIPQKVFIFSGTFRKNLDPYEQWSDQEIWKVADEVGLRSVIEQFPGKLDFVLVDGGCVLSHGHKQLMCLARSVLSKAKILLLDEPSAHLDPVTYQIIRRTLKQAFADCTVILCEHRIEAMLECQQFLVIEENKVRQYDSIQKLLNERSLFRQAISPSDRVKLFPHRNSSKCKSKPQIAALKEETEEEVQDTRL
Experimental: Whole-cell, patch clamp recordings were performed on CFTR-expressing CHO cells. The bath solution contained (in mM) 140 NMDG-Cl, 1 CaCl2, 1 MgCl2, 10 glucose, and 10 HEPES (pH 7.4). The pipette solution contained (in mM) 130 CsCl, 0.5 EGTA, 1 MgCl2, 1 Tris-ATP, and 10 HEPES (pH 7.2). […] Seal resistances were between 3 and 10 GΩ. After establishing the whole-cell configuration, CFTR was activated by forskolin and/or isorhamnetin. […] Recordings were made at room temperature using an Axopatch-200B (Axon Instruments, San Jose, CA, USA). Currents were digitized with a Digidata 1440A converter (Axon Instruments), filtered at 5 kHz, and sampled at 1 kHz.

[1] = tested on: corneal epithelial (CorE) cells; assay: MTS cell viability assay in CorE cells; assay type: cell-based, human; conditions: 48 h; isorhamnetin 30 μM, Triton X-100 0.01%
Experimental: (§1) Immortalized human CorE [47] and immortalized human ConjE (Innoprot, Bizkaia, Spain) cells were plated on 96-well microplates. After 24 h incubation, cells were treated with 30 μM isorhamnetin or 0.01% Triton X-100 and then they were incubated for two days. An equal amount of DMSO was added to the control. The culture medium and the compounds were changed every 12 h. To assess cell proliferation, after 48 h of incubation with the compound, the cells were reincubated with MTS for 1 h. The soluble formazan produced by cellular reduction of MTS was quantified by measuring the absorbance at 490 nm with Infinite M200 (Tecan, Grödig, Austria) microplate reader. MTS assay was done using CellTiter 96 AQueous One Solution Cell Proliferation Assay kit (Promega, Madison, WI, USA).

[2] = tested on: conjunctival epithelial (ConjE) cells; assay: MTS cell viability assay in ConjE cells; assay type: cell-based, human; conditions: 48 h; isorhamnetin 30 μM, Triton X-100 0.01%
Experimental: as §1

| Molecule | isorhamnetin-increased tear volume (CD-1 mice) | isorhamnetin-induced hyperpolarization of ocular PD (CFTR) | block of isorhamnetin-induced CFTR Cl- currents (whole-cell) (WT-CFTR) | cell viability (MTS), CorE cells [1] | cell viability (MTS), ConjE cells [2] |
| --- | --- | --- | --- | --- | --- |
| O=C(O)c1ccc(/C=C2\SC(=S)N(c3cccc(C(F)(F)F)c3)C2=O)cc1 [CFTRinh-172, reference compound] | completely suppressed | inhibited | almost completely blocked |  |  |
| Triton X-100 [reference compound] |  |  |  | markedly decreased cell viability | markedly decreased cell viability |

From article PMC8070004, “Isorhamnetin Ameliorates Dry Eye Disease via CFTR Activation in Mice” (International Journal of Molecular Sciences, 2021)
